{"source": "patent US20050131051A1", "about": "“2-3-disubstituted quinuclidiness as modulators of monoamine transporters and theraperutic and diagnostic methods based thereon” (priority 2000, published 2005)", "key": {"[1]": {"biological_target": "T1, dopamine transporter (DAT) (Rattus norvegicus, UniProt P23977)", "T1 construct": "P2 membrane pellets were prepared by differential centrifugation from rat striatum; from tissue; host or cells: rat striatum (P2 membrane pellet / P2 synaptosomes)", "experiment": "[3H]mazindol binding assay", "conditions": "for Ki: rat striatum membranes, mean ± standard error or range of 2-3 experiments", "protocol": "Binding assays were conducted as previously described. Briefly conventional P2 membrane pellets were prepared by differential centrifugation from rat striatum. The P2 pellet was resuspended in Krebs-Ringer-HEPES (KRH) buffer consisting of (in mM): NaCl (125), KCl (4.8), MgSO4 (1.2), CaCl2 (1.3), KH2PO4 (1.2), glucose (5.6), nialamide (0.01), and HEPES (25) (pH 7.4) and centrifuged again. Finally, the pellet was resuspended in 30 volumes of buffer, pelleted at 15,000×g and frozen at −80° C. until used. The striatal homogenates were thawed by resuspension in the buffer described above at 75-125 µg protein/ml and incubated with [^3H]mazindol, with or without competing drugs, for 60 min in a 4° C. cold room. […] The bound and free [^3H]mazindol were separated by rapid vacuum filtration over Whatman GF/C filters, using a Brandel M24R cell harvester, followed by two washes with 5 ml of cold buffer. Radioactivity on the filters was then extracted by allowing to sit over night with 5 ml of scintillant. The vials were vortexed and counted. IC50 values were determined using the computer program LIGAND.\nFor binding assays, caudate nuclei were homogenized using a polytron in 0.32 M sucrose and centrifuged for 10 mm at 1000×g. The supernatant was resuspended in cold sucrose and centrifuged at 17,500×g for 20 mm. The pellet was resuspended in Krebs-Ringer-HEPES (KRH) buffer consisting of (in mM): NaCl (125), KCl (4.8), MgSO4 (1.2), CaCl2 (1.3), KH2PO4(1.2), glucose (5.6), nialamide (0.01), and HEPES (25) (pH 7.4) and centrifuged again. Finally, the pellet was resuspended in 30 volumes of buffer, pelleted at 15,000×g and frozen at −80° C. until used. The striatal homogenates were thawed by resuspension in the buffer described above at 75-125 μg protein/ml and incubated with [^3H]mazindol, with or without competing drugs, for 60 mm in a 4° C. cold room. […] The bound and free [^3H]mazindol were separated by rapid vacuum filtration over Whatman GF/C filters, using a Brandel M24R cell harvester, followed by two washes with 5 ml of cold buffer. Radioactivity on the filters was then extracted by allowing to sit over night with 5 ml of scintillant. The vials were vortexed and counted. IC50 values were determined using the computer program LIGAND."}, "serotonin transporter": {"biological_target": "T2, serotonin transporter (Rattus norvegicus, UniProt P31652)", "T2 construct": "using synaptosomes prepared from rat midbrain and parietal/occipital cortex, respectively; from tissue; host or cells: rat midbrain synaptosomes", "T2 sequence (P31652 whole entry)": "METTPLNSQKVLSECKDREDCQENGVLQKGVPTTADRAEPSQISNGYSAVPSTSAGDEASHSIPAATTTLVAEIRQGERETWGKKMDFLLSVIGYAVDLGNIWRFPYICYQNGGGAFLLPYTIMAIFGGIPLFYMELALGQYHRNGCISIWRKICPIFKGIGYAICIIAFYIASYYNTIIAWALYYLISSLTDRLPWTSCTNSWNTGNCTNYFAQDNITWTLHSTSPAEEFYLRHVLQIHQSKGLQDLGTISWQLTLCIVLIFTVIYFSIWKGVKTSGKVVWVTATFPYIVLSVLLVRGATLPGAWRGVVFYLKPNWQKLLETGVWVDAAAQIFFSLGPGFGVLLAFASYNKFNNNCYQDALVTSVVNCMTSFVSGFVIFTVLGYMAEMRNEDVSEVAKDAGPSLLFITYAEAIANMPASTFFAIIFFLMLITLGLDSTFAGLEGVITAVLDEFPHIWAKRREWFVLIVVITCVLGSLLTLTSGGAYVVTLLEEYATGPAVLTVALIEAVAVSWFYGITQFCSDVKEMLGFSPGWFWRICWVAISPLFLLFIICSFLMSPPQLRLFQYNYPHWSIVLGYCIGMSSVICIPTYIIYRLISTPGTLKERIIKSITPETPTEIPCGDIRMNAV", "experiment": "Synaptosomal uptake of [3H]5-HT", "format": "biochemical", "protocol": "(§1) IC50 values were determined by a computer assisted, iterative fit to a four-parameter sigmoidal equation (ALLFIT). These values were then converted to Ki values according to the Cheng-Prusoff equation assuming classical competitive inhibition. Preincubation of the drug and synaptosomes at 37° C. for 30 min was used to approximate equilibrium conditions as necessary to satisfy the requirements of the Cheng-Prusoff equation.\n(§2) The effect of candidate compounds in antagonizing dopamine high-affinity uptake was determined using a method previously employed. For [^3H]DA uptake, dissected rat striata were homogenized with a Teflon-glass pestle in ice-cold 0.32 M sucrose and centrifuged for 10 mm at 1000×g. The supernatant was centrifuged at 17,500×g for 20 mm. This P2 synaptosomal pellet was resuspended in 30 volumes of ice-cold modified KRH buffer. An aliquot of the synaptosomal suspension was preincubated with the buffer and drug for 30 mm at 37° C., and uptake initiated by the addition of [^3H]dopamine (5 nM, final conc.). After 5 mm, uptake was terminated by adding 5 ml of cold buffer containing glucosamine as a substitute for NaCl and then finally by rapid vacuum filtration over GF-C glass fiber filters, followed by washing with two 5 ml volumes of ice-cold, sodium-free buffer. Radioactivity retained on the filters was determined by liquid scintillation spectrometry. […] Also, specific uptake of [^3H]5-HT and [^3H]NE were defined in the presence of 10 uM fluoxetine and 1 uM desipramine, respectively."}, "[2]": {"biological_target": "T3, norepinephrine transporter (Rattus norvegicus, UniProt Q63380)", "T3 construct": "using synaptosomes prepared from rat midbrain and parietal/occipital cortex, respectively; from tissue; host or cells: rat parietal/occipital cortex synaptosomes", "T3 sequence (Q63380 1-617)": "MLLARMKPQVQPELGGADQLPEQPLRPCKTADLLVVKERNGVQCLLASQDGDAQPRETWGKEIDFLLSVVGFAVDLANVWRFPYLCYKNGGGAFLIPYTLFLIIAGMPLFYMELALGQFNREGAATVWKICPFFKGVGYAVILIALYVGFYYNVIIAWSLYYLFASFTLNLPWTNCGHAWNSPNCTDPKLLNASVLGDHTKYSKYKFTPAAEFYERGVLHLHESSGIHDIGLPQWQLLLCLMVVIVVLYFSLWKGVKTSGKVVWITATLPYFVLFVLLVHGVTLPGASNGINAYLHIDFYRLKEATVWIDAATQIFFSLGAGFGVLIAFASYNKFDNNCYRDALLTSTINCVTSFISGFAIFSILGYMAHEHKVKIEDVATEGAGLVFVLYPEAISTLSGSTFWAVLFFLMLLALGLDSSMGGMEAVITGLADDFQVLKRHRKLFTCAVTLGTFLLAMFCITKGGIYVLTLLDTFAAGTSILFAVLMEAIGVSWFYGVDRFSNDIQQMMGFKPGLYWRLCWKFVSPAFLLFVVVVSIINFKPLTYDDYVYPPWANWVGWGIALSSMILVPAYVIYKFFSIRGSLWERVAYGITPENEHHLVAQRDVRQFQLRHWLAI", "experiment": "Synaptosomal uptake of [3H]NE", "format": "biochemical", "protocol": "as §1, §2"}, "[3]": {"biological_target": "T1, dopamine transporter (DAT)", "experiment": "Synaptosomal uptake of [3H]DA (inhibition of DA reuptake)", "format": "biochemical", "protocol": "as §2, with “uptake, freshly” for “uptake,”, “min” for “mm”, “min.” for “mm.”, “min,” for “mm,”, “It is identical to that calculated by subtracting the mean” for “Also, specific uptake”, “identical tubes incubated at 0° C.” for “[^3H]5-HT and [^3H]NE were defined in the presence of 10 uM fluoxetine and 1 uM desipramine, respectively.”\nas §1, §2"}, "DAT": {"biological_target": "DAT (Homo sapiens, UniProt Q01959)", "sequence (Q01959 whole entry, species assumed)": "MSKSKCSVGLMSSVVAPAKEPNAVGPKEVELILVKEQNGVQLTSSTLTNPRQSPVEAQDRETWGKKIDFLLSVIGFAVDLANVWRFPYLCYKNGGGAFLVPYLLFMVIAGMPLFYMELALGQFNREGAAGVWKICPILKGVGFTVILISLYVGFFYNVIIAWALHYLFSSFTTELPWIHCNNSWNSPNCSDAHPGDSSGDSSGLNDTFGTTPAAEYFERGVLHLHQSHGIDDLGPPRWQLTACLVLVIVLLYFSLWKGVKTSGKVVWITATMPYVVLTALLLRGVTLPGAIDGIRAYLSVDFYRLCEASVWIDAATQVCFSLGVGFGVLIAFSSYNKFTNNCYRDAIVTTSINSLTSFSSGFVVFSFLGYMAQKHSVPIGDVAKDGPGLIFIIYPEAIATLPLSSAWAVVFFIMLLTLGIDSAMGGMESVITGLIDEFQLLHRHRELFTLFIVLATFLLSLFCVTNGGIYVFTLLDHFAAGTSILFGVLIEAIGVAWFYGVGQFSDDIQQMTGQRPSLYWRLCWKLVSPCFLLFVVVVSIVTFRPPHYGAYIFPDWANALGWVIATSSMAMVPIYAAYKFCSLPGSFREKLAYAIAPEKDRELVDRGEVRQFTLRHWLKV", "conditions": "cited from earlier work"}, "[4]": {"conditions": "read-out: Ki (nM) [3H] Mazindol Binding"}, "[5]": {"conditions": "Ki (nM) DA Reuptake, rat striatal synaptosomes, mean ± standard error or range of 2-3 experiments"}, "[6]": {"conditions": "Ki (nM) SER, synaptosomes from rat midbrain, mean ± standard error or range of 2-3 experiments"}, "[7]": {"conditions": "Ki (nM) NE, synaptosomes from rat parietal/occipital cortex, mean ± standard error or range of 2-3 experiments"}, "[8]": {"conditions": "binding affinity and DA reuptake not distinguished in the sentence"}}, "note": "Where two headings read alike, the source gives them in different places.", "data": [{"smiles": "CCCCC1C(c2ccccc2)C2CCN1CC2", "note": "(racemic) [(±)-12, 2-Butyl-3-phenylquinuclidine]", "values": [{"measurement": "times more potent than cocaine in binding affinity", "setting": "[1]", "result": "as potent as cocaine"}, {"measurement": "Ki", "setting": "[1]; [4]", "result": 210, "unit": "nM"}, {"measurement": "fold improvement over the lead compound (3) in binding affinity", "setting": "[1]; ratio of Ki values", "result": 31, "unit": "fold"}, {"measurement": "Ki", "setting": "serotonin transporter", "result": "655 ± 21", "unit": "nM"}, {"measurement": "Ki", "setting": "[2]", "result": "136 ± 11", "unit": "nM"}, {"measurement": "times more potent than cocaine in inhibition of DA reuptake", "setting": "[3]", "result": "as potent as cocaine"}, {"measurement": "Ki", "setting": "[3]; [5]", "result": 237, "unit": "nM"}, {"measurement": "fold improvement over the lead compound (3) in inhibition of DA reuptake", "setting": "[3]; ratio of Ki values", "result": 32, "unit": "fold"}]}, {"smiles": "CCCCC1C(c2ccc(C)cc2)C2CCN1CC2", "note": "(racemic) [(±)-13, 2-Butyl-3-(4-methylphenyl)quinuclidine]", "values": [{"measurement": "Ki", "setting": "[1]; Ki (nM) [3H] Mazindol Binding", "result": 20, "unit": "nM"}, {"measurement": "fold improvement over 13 (so in the source) in binding activity", "setting": "[1]; ratio of Ki values", "result": 11, "unit": "fold"}, {"measurement": "fold improvement over the lead compound (3) in binding affinity", "setting": "[1]; ratio of Ki values", "result": 365, "unit": "fold"}, {"measurement": "Ki", "setting": "serotonin transporter; [6]", "result": "77 ± 7", "unit": "nM"}, {"measurement": "Ki", "setting": "[2]; [7]", "result": "62 ± 5", "unit": "nM"}, {"measurement": "Ki", "setting": "[3]; [5]", "result": 49, "unit": "nM"}, {"measurement": "fold improvement over 13 (so in the source) in uptake activity", "setting": "[3]; ratio of Ki values", "result": 5, "unit": "fold"}, {"measurement": "fold improvement over the lead compound (3) in inhibition of DA reuptake", "setting": "[3]; ratio of Ki values", "result": 181, "unit": "fold"}]}, {"smiles": "CCCCC1C(c2ccc(C)cc2)C2CCN1CC2", "note": "(single isomer, unassigned; (+)) [(+)-13, 2-Butyl-3-(4-methylphenyl)quinuclidine]", "values": [{"measurement": "Ki", "setting": "[1]; [4]", "result": 343, "unit": "nM"}, {"measurement": "Ki", "setting": "serotonin transporter", "result": "508 ± 22", "unit": "nM"}, {"measurement": "Ki", "setting": "[2]", "result": "164 ± 47", "unit": "nM"}, {"measurement": "Ki", "setting": "[3]; [5]", "result": 354, "unit": "nM"}]}, {"smiles": "CCCCC1C(c2ccc(C)cc2)C2CCN1CC2", "note": "(single isomer, unassigned; (-)) [(−)-13, 2-Butyl-3-(4-methylphenyl)quinuclidine]", "values": [{"measurement": "times more potent than cocaine in binding affinity", "setting": "[1]", "result": 17, "unit": "times"}, {"measurement": "Ki", "setting": "[1]; Ki (nM) [3H] Mazindol Binding", "result": 14, "unit": "nM"}, {"measurement": "fold improvement over the lead compound (3) in binding affinity", "setting": "[1]; ratio of Ki values", "result": 519, "unit": "fold"}, {"measurement": "Ki", "setting": "serotonin transporter; [6]", "result": "26 ± 3", "unit": "nM"}, {"measurement": "Ki", "setting": "[2]; [7]", "result": "15 ± 3", "unit": "nM"}, {"measurement": "times more potent than cocaine in inhibition of DA reuptake", "setting": "[3]", "result": 9, "unit": "times"}, {"measurement": "Ki", "setting": "[3]; [5]", "result": 32, "unit": "nM"}, {"measurement": "fold more potent than (±)-13", "setting": "[3]; [8]", "result": "approximately 2 fold"}, {"measurement": "fold more potent than its enantiomer (+)-13", "setting": "[3]; [8]", "result": 11, "unit": "fold"}, {"measurement": "fold improvement over the lead compound (3) in inhibition of DA reuptake", "setting": "[3]; ratio of Ki values", "result": 278, "unit": "fold"}]}, {"smiles": "COC(=O)[C@H]1[C@@H](c2ccccc2)C[C@@H]2CC[C@H]1N2C", "note": "[2 (WIN 35065-2), WIN 35065-2]", "values": [{"measurement": "binding affinity at the DAT site, times better than cocaine", "setting": "DAT", "result": 4, "unit": "times"}]}, {"smiles": "C=CCCC1C(=O)C2CCN1CC2", "note": "(centres unmarked) [Compound 7, 2-But-3-enylquinuclidin-3-one]", "values": [{"measurement": "Ki", "setting": "[3]; [5]", "result": "> 10000", "unit": "nM"}, {"measurement": "measurable activity in inhibition of DA reuptake", "setting": "[3]; at 10 µM", "result": "did not show any measurable activity"}]}, {"smiles": "C=CCCC1N2CCC(CC2)C1(O)c1ccccc1", "note": "(centres unmarked) [Compound 8, 2-But-3-enyl-3-phenylquinuclidin-3-ol]", "values": [{"measurement": "Ki", "setting": "[3]; Ki value (text, refers to Table 1 DA reuptake)", "result": 31200, "unit": "nM"}, {"measurement": "fold less potent than 12", "setting": "[3]; ratio of Ki values, DA reuptake", "result": 131, "unit": "fold"}]}]}
